From patent publication US7691863B2, “Pyrazine-2-carboxamide derivatives as CB2 receptor modulators” (Hoffman-La Roche Inc., priority 2006, dated 2010)

Biological target: T1, human cannabinoid CB2 receptor (Homo sapiens, UniProt P34972)
T1 construct: expressed in transfected cells; host or cells: human embryonic kidney (HEK) cells, transient, Semliki Forest virus system
Test: Affinity for cannabinoid CB2 receptors, [3H]-CP-55,940 radioligand binding on membrane preparations of transfected HEK cells
Details: [3H]-CP-55,940 as radioligand, HEK cell membranes
Experimental: The affinity of the compounds of the invention for cannabinoid CB2 receptors was determined using membrane preparations of human embryonic kidney (HEK) cells in which the human cannabinoid CB2 receptor is transiently transfected using the Semliki Forest virus system in conjunction with [3H]-CP-55,940 as radioligand. After incubation of a cell membrane preparation with the [3H]-ligand, with or without addition of compounds of the invention, separation of bound and free ligand was performed by filtration over glassfiber filters. Radioactivity on the filter was measured by liquid scintillation counting.

T1 sequence (P34972 whole entry): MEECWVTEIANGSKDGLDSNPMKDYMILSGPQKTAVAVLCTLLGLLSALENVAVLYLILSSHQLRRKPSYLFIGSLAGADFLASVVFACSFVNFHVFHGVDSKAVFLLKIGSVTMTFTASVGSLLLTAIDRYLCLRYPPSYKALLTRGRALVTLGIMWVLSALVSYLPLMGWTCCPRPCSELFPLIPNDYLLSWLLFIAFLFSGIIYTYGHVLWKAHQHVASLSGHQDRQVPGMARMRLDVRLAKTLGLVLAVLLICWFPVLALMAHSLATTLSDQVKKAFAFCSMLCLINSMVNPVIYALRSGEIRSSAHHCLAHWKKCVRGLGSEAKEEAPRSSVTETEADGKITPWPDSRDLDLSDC

| Molecule | Ki [µM] |
| --- | --- |
| 6-Cyclopropylmethoxy-5-pyrrolidin-1-yl-pyrazine-2-carboxylic acid ((S)-1-hydroxymethyl-3-methyl-butyl)-amide [Example 4] | 0.044 |
| 2-Ethyl-2-{[5-pyrrolidin-1-yl-6-(2,2,2-trifluoro-ethoxy)-pyrazine-2-carbonyl]-amino}-pentanoic acid methyl ester [Example 14] | 0.063 |
| CC(C)C[C@@H](CO)NC(=O)c1cnc(OCC2CC2)c(N2CCCCC2)n1 [Example 44, 5-Cyclopropylmethoxy-6-piperidin-1-yl-pyrazine-2-carboxylic acid ((S)-1-hydroxymethyl-3-methyl-butyl)-amide] | 0.043 |
